According to ChEMBL document CHEMBL1201862, “PubChem BioAssay data set” (2004):
Calls of active or inactive are those of the source.

Legend:
[1] = molecular target: T1, Oxysterols receptor LXR-beta (Homo sapiens, UniProt P55055); format: functional, cell-based;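 further: Cell-based luminescence dose-response assay of agonist activity at LXR, run as a confirmatory counterscreen to a daf-12 agonist screen; HEK293 cells with Gal4-LXR fusion and GAL4-driven luciferase reporter; agonist potency from rising luciferase signal of a Gal4-LXR reporter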
T1 sequence (P55055 whole entry): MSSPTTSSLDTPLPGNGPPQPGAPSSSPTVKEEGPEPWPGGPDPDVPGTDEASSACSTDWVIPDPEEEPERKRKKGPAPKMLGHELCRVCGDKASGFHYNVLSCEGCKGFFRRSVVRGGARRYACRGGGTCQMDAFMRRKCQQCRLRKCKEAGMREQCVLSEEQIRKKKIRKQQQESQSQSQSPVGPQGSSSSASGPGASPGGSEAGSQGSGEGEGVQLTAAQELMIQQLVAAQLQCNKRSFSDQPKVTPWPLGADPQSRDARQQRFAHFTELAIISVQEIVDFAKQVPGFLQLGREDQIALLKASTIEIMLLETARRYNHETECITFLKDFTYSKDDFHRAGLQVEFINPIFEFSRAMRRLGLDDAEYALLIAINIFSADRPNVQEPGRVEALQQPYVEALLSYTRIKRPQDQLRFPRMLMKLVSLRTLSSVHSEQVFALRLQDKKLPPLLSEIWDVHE

[2] = molecular target: T2, Short transient receptor potential channel 4 (Mus musculus, UniProt Q9QUQ5); assay: block of DAMGO-driven TRPC4 calcium entry – cell-based, HEK293 TRPC4/mu-opioid, Fluo-4 calcium, dose response (AID 434942); format: functional;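 further: potency of inhibitors blocking the TRPC4 calcium response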
T2 sequence (Q9QUQ5 whole entry): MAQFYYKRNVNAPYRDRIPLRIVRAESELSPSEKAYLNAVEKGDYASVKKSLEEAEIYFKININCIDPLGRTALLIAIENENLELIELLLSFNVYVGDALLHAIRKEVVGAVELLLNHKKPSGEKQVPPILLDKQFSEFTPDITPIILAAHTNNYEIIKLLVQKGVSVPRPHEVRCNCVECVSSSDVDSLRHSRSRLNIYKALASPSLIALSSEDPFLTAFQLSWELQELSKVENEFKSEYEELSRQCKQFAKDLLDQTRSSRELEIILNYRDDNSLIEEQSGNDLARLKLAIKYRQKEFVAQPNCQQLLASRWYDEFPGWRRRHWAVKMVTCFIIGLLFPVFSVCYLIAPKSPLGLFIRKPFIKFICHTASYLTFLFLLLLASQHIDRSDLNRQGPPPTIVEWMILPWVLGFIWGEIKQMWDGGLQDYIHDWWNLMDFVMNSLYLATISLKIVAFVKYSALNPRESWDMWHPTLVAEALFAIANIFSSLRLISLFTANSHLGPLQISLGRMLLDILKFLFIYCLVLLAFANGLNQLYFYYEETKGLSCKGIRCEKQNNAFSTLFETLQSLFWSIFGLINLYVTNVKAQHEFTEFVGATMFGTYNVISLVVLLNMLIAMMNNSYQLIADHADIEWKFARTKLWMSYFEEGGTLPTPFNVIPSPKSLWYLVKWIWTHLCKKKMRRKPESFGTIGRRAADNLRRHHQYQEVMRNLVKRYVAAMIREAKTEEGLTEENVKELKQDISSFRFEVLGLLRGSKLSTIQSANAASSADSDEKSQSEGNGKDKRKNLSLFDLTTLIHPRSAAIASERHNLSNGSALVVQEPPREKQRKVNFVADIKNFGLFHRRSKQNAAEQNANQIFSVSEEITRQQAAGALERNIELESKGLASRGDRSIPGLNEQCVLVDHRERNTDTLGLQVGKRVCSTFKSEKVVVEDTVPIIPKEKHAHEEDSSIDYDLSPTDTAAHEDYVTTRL

[3] = blockers of CRF-binding protein–CRF-R2 complex – cell-based, uHTS hits, 384-well, dose response (AID 651639); format: functional, Homo sapiens; conditions: read-out: IC50_Mean
Vero = assay: viability of Vero cells under compound – cytotoxicity control for flavivirus capping enzyme inhibitors (AID 588742); format: functional; conditions: Chlorocebus sabaeus
[4] = molecular target: T3, Corticotropin-releasing factor receptor 2/Corticotropin-releasing factor-binding protein (Homo sapiens, UniProt P24387+Q13324); assay: Dose Response confirmation of uHTS hits for small molecule antagonists of the CRF-binding protein and CRF-R2 receptor complex.; format: functional; conditions: read-out: IC50_Mean
T3 sequence (Q13324 whole entry): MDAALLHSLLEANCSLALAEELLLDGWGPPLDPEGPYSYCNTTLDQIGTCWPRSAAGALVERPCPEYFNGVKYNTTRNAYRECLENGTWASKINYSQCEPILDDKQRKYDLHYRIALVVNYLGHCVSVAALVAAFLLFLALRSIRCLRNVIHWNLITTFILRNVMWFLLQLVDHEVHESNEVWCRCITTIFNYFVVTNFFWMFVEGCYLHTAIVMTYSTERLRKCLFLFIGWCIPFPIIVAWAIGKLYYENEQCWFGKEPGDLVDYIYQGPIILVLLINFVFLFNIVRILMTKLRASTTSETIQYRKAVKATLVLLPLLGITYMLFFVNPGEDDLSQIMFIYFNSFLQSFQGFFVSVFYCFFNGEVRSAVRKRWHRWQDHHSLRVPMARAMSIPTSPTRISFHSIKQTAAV
T3 sequence (P24387 whole entry): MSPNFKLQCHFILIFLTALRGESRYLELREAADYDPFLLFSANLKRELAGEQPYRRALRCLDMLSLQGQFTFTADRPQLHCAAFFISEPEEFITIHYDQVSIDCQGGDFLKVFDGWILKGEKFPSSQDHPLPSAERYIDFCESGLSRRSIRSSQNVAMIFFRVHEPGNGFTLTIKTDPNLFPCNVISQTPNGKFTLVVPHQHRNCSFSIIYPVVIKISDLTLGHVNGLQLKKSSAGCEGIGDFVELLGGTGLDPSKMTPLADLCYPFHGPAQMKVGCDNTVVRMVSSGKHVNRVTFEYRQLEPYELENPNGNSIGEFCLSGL

[5] = molecular target: T3, Corticotropin-releasing factor receptor 2/Corticotropin-releasing factor-binding protein; assay: activators of CRF receptor 2 with binding protein – uHTS hits, confirmation (AID 602473); format: functional; conditions: read-out: EC50_Mean
Aminopeptidase N = molecular target: T4, Aminopeptidase N (Plasmodium falciparum FcB1/Columbia, UniProt O96935); assay: malaria alanyl aminopeptidase activity blockers – biochemical, fluorogenic H-Leu-NHMec substrate, 1536-well (AID 1445); parameters: species or system Plasmodium falciparum 3D7, 3D7
T4 sequence (O96935 whole entry): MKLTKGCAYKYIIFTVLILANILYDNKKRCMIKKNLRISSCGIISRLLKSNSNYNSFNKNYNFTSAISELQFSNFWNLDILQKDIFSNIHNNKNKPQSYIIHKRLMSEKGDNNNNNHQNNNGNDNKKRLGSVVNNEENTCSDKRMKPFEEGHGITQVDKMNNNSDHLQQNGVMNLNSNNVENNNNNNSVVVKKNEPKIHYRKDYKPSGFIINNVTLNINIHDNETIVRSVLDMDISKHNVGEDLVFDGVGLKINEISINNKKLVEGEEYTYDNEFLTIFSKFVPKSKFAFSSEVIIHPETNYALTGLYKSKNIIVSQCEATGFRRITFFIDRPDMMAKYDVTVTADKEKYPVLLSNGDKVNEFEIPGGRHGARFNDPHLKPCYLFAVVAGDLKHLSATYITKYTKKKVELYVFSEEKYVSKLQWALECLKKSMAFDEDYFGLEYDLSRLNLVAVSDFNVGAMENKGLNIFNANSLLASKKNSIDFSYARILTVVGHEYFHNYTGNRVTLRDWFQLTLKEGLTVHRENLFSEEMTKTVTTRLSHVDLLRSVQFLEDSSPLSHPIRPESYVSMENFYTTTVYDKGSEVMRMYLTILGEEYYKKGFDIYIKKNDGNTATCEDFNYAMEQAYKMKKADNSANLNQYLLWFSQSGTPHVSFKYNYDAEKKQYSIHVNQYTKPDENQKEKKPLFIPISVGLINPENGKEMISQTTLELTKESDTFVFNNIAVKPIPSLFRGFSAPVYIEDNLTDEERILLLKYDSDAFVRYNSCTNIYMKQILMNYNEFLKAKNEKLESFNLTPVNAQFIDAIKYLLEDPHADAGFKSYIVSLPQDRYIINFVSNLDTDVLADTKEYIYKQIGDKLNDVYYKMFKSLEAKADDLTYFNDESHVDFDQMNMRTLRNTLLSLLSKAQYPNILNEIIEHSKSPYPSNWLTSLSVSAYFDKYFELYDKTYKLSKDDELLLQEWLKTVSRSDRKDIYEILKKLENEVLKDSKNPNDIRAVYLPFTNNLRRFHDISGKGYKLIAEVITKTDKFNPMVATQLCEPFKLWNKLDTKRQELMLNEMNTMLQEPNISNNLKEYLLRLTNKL

Genome polyprotein = Genome polyprotein (dengue virus type 2, UniProt P29990); assay: flavivirus cap methylation enzyme inhibition – biochemical, confirmation dose response, primary screen (AID 588689); format: functional
[6] = molecular target: Potassium channel subfamily K member 9 (Homo sapiens, UniProt Q9NPC2); assay: KCNK9 flux blockade, concentration-response – cell-based, FluxOR thallium flux, selectivity assay for TASK1 inhibitor project, SAR follow-up (AID 652211); format: functional;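 further: potency is for inhibitors of the channel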
[7] = blockade of melanocortin 4 receptor signaling – cell-based, plate reader, cherry pick, counter-screen for LGR2 antagonist project, dose response (AID 743444); format: functional;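 further: transfected HEK 293 cells stimulated with alpha-MSH peptide; potency of inhibitors of the alpha-MSH evoked signal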
[8] = A549 cell cytotoxicity, dose response, cytotoxicity control, plate reader, cherry-pick, antagonist series (AID 743412); format: functional, cell-based
[9] = toxicity toward HepG2 liver cells – cell-based, plate reader, cherry-pick, antagonist series, cytotoxicity control, dose response (AID 743416); format: functional
[10] = viability loss in HEK293 cells – cell-based, plate reader, cherry-picked samples, cytotoxicity control, dose response (AID 743446); format: functional
[11] = blockers of bursicon-stimulated LGR2 cAMP reporter – cell-based, HEK293, CRE-luciferase reporter, cherry pick, set 2, dose response (AID 743343); format: functional;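 further: transfected cells were stimulated with diluted bursicon conditioned medium after compound addition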
Protein Tat = molecular target: T5, Protein Tat (Human immunodeficiency virus type 1 group M subtype B (isolate HXB2)(HIV-1), UniProt P04608); format: functional;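 further: tat binding to TAR RNA read out by fluorescence polarization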
T5 sequence (P04608 whole entry): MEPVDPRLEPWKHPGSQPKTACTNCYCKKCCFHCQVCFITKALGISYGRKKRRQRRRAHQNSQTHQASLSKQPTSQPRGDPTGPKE

[12] = molecular target: T6, ATP-dependent translocase ABCB1 (Homo sapiens, UniProt P08183); assay: P-gp JC-1 efflux blockade concentration-response – Jurkat-DNR cells, flow cytometry, set 2, dose response (AID 504569); format: functional; conditions: read-out: EC50_MICROM_;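 further: potency of pump inhibitors that raise cellular JC-1 green fluorescence up to the nicardipine level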
[13] = molecular target: T6, ATP-dependent translocase ABCB1; assay: inhibition of BCRP-mediated JC-1 efflux – Ig-MXP3 cells, flow cytometry, set 2, dose response (AID 504566); format: functional; conditions: read-out: EC50_MICROM_;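 further: flow cytometry median green fluorescence of retained JC-1 dye; potency of efflux pump inhibition measured as rising substrate retention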

T6 sequence (P08183 whole entry): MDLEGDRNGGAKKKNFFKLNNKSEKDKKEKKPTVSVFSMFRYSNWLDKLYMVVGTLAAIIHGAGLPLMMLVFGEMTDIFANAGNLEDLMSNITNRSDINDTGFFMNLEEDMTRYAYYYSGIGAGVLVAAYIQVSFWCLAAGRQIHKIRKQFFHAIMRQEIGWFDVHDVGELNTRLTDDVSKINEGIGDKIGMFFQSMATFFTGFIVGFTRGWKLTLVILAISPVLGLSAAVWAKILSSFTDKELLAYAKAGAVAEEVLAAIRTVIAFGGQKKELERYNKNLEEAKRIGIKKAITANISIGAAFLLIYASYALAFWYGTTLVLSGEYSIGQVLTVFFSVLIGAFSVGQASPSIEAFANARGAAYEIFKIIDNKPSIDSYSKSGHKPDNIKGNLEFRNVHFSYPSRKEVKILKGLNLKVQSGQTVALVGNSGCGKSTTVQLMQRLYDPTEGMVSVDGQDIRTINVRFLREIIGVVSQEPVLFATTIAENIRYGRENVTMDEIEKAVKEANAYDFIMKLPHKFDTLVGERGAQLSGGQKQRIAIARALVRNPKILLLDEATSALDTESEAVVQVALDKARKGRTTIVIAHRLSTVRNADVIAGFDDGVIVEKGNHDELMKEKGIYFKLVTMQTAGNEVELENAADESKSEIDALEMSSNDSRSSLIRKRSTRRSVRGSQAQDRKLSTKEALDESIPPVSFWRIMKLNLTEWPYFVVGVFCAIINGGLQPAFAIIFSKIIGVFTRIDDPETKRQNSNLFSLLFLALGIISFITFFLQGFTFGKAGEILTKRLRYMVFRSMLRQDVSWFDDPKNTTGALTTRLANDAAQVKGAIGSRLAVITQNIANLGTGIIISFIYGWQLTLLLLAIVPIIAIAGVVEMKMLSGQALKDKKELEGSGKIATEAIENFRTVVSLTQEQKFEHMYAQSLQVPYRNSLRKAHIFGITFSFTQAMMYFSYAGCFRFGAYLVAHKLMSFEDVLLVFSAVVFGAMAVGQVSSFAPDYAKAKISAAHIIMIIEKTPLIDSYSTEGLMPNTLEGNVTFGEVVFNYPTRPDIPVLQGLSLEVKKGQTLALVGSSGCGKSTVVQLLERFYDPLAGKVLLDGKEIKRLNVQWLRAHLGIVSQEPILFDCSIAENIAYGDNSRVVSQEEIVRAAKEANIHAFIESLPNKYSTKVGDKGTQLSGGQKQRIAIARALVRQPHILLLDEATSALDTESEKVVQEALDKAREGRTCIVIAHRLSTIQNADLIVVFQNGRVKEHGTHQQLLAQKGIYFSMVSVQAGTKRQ
Chain of Genome polyprotein (P29990 2492-3391 limits assumed): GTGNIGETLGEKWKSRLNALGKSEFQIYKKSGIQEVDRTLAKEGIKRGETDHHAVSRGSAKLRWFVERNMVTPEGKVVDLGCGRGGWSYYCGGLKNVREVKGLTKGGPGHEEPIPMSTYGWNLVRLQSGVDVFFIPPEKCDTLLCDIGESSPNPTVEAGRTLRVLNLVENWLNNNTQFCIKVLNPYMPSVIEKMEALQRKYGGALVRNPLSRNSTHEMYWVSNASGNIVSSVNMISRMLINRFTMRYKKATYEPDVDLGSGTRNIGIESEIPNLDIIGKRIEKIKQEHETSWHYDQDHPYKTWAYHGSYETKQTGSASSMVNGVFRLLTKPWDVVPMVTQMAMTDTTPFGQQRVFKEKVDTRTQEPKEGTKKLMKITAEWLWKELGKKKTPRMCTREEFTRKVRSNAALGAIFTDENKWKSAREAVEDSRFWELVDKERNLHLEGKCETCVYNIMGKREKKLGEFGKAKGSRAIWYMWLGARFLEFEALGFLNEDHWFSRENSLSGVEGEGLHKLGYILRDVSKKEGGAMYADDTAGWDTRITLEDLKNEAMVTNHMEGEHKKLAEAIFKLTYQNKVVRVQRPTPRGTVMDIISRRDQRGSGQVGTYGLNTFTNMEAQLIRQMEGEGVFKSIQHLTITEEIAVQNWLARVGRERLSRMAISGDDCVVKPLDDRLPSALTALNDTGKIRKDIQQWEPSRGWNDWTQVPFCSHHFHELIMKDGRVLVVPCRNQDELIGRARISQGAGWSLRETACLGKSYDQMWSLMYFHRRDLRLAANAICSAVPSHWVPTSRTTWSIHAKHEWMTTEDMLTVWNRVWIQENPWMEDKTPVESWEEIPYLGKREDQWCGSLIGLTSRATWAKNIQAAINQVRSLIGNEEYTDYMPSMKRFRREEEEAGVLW
Chain of Potassium channel subfamily K member 9 (Q9NPC2 whole entry): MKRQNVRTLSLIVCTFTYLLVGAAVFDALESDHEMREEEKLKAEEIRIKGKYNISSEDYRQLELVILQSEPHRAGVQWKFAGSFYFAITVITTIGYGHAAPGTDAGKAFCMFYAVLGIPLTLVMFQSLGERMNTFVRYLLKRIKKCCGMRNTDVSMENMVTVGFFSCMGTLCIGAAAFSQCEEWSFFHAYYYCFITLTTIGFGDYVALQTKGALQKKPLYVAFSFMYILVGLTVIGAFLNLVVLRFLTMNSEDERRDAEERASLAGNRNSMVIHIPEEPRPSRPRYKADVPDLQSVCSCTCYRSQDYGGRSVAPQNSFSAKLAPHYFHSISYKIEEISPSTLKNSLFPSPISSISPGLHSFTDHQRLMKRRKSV

Brc1ccccc1C1NC(c2ccccc2)=NO1 (stereo not given)
EC50 [1]: > 67.5 µM (inactive)
EC50 (cells): > 67.5 µM (inactive)

COc1cc(/C=C2\SC(=S)N(NS(=O)(=O)c3ccc(C)cc3)C2=O)cc(OC)c1OC
EC50 [2]: 6.68 µM (active)
IC50 [3]: 10.4 µM (active)
CC50 (Vero): > 40 µM (active)
IC50 [4]: 12.6 µM (active)
EC50 [5]: > 53 µM (inactive)
IC50 (Aminopeptidase N): 33.1 µM (active)
IC50 (Genome polyprotein): 37.4 µM (active)

COc1ccccc1C(=O)Nc1cccc(NC(=O)c2ccccc2C)c1
IC50 [6]: 3.49 µM (active)

Cc1cc2ncc(-c3cccs3)nc2cc1C
EC50 [1]: > 67.6 µM (inactive)
AC50 [7]: 4.22 µM (active)
AC50 [8]: 25.7 µM (active)
AC50 [9]: > 52 µM (inactive)
AC50 [10]: 49.4 µM (active)
EC50 (cells): > 67.6 µM (inactive)
AC50 [11]: 4.64 µM (active)

O=c1cc(O)n(-c2ccc(F)cc2)c(=S)[nH]1
IC50 (Protein Tat): > 100 µM (active)

Cc1nc2cc(-c3cccc(Cl)c3)nn2c(N2CCN(C(=O)c3ccco3)CC2)c1C
EC50 [12]: 7.87 µM (active)
EC50 [13]: 3.41 µM (active)
